Source: patent US20100303790A1, “USE OF BILIVERDIN REDUCTASE (BVR) AND BVR PEPTIDE FRAGMENTS TO TREAT CORONARY DISORDERS” (UNIVERSITY OF ROCHESTER, priority 2009, published 2010)

Columns and labels:
[1] = system: rat heart; test: BVR and HO-2 expression in rat heart after continuous isoproterenol infusion; type: in vivo; conditions: 400 μg isoproterenol/kg/h, four days
Method: Western Blot Analysis: Cell lysates were prepared by homogenization in RIPA buffer (40 mM Tris-HCl, pH 7.5, 1 mM EDTA, 1 mM DTT, 0.1 mM Na3VO4, 10 μg/ml aprotinin, 5 μg/ml pepstatin, 20 μg/ml leupeptin, 1 mM bezamidine followed by centrifugation at 800×g for 10 minutes at 4° C. (Ding et al., “Functional Role of Phosphodiesterase 3 in Cardiomyocyte Apoptosis: Implication in Heart Failure,” Circulation 111:2469-2476 (2005), which is hereby incorporated by reference in its entirety). Supernatant proteins were resolved by SDS-PAGE and transferred to nitrocellulose. Western blots were examined using antibodies against β-actin (Cell Signaling), BVR (Huang et al., “Detection of 10 Variants of Biliverdin Reductase in Rat Liver by Two-Dimensional Gel Electrophoresis,” J Biol Chem 264:7844-7849 (1989), which is hereby incorporated by reference in its entirety), HO-1, HO-2 (Panahian et al., “Site of Injury-Directed Induction of Heme Oxygenase-1 and -2 in Experimental Spinal Cord Injury Differential Functions in Neuronal Defense Mechanisms?” J Neurochem 76:539-554 (2001), which is hereby incorporated by reference in its entirety), and cleaved caspase-3 (Cell Signaling, Beverly Mass.). The secondary antibody was horseradish peroxidase-conjugated goat anti-rabbit IgG (1:2,000, Bio-Rad).
Quantitative RT-PCR: Total RNA was isolated using Trizol reagent (Invitrogen). The first-strand cDNA synthesis and quantitative polymerase chain reaction (RT-PCR) were performed as previously described (Tudor et al., “Biliverdin Reductase is a Transporter of Haem into the Nucleus and is Essential for Regulation of HO-1 Gene Expression by Haematin,” Biochem J 413:405-416 (2008), which is hereby incorporated by reference in its entirety). The following primers were used for PCR analysis: […]
Implanting ISO Miniosmotic Pump: Miniosmotic pumps (Alzet model 2001, Durect Co., Cupertino, Calif.) were filled under sterile conditions with ISO dissolved in 0.001 N HCl, primed in sterile saline at 37° C. overnight, and aseptically implanted subcutaneously under halothane anesthesia. The ISO concentration was calculated to allow the pumps to deliver the drug at an infusion rate of 400 μg ISO base/kg/h, essentially as described by (Hayes et al., “Effects of Prolonged Isoproterenol Infusion on Cardiac and Vascular Responses to Adrenoceptor Agonists,”J Pharmacol Exp Ther 237:757-763 (1986), which is hereby incorporated by reference in its entirety).
It might be argued that the above data arose as an artifact of cell culture. To test whether those findings also apply in vivo, four rats were continuously infused with isoproterenol for four days, after which cardiac tissue was harvested for examination of BVR and HO-2 expression. […] Also, as expected from in vitro observations, there was no change in the level of HO-2 mRNA during infusion with isoproterenol (FIG. 3B), whereas the BVR mRNA was increased.

[2] = system: rat neonatal cardiomyocytes; test: BVR, HO-2 and HO-1 protein levels in rat neonatal cardiomyocytes (western blot); type: cell-based
Method: Neonatal Rat Cardiomyocytes: Primary cultures of neonatal rat cardiomyocytes were prepared as described previously (Ding et al., “Functional Role of Phosphodiesterase 3 in Cardiomyocyte Apoptosis: Implication in Heart Failure,” Circulation 111:2469-2476 (2005) which is hereby incorporated by reference in its entirety). Briefly, fragmented ventricular tissue from 1-2 day old Sprague-Dawley rats was subjected to multiple rounds of enzymatic digestion with collagenase II (Worthington, Lakewood, N.J.). The cells were then collected by low speed centrifugation at 4° C. Non-myocytes were removed by two rounds of pre-plating the cells on culture dishes. The enriched cardiomyocytes were cultured in DMEM with 10% FBS and 10% horse serum. The day after cell adhesion, 10 μM cytosine 1-β-D-arabinofuranoside (Sigma, St. Louis, Mo.) was added to inhibit the growth of contaminating non-myocytes.
Plasmids and Constructs: Adenovirus for expression of an endogenous PKA inhibitor (PKA251 bp) was prepared as described previously (Ding et al., “Functional Role of Phosphodiesterase 3 in Cardiomyocyte Apoptosis: Implication in Heart Failure,” Circulation 111:2469-2476 (2005), which is hereby incorporated by reference in its entirety). Rat BVR and HO-2 siRNA were designed based on the human sequences (Miralem et al., “Small Interference RNA-Mediated Gene Silencing of Human Biliverdin Reductase, but not that of Heme Oxygenase-1, Attenuates Arsenite-Mediated Induction of the Oxygenase and Increases Apoptosis in 293A Kidney Cells,” J Biol Chem 280:17084-17092 (2005), which is hereby incorporated by reference in its entirety). The BVR targeting site is at nucleotides 94-114, and the HO-2 targeting site is at nucleotides 73-93, downstream of the start codon in each case. Oligonucleotides containing the sequence of a 21 nucleotide small interference RNA were synthesized as follows: BVR siRNA, 5′-GATCCCC ([…]) TTCAAGAG ([…]) TTTTTGGAAA (SEQ ID NO:61) and 5′-AGCTTTTCCAAAAA ([…]) TCTCTTGAA ([…]) GGG (SEQ ID NO:62; HO-2 siRNA, 5′-GATCCCC ([…]) TTCAAGAGA ([…]) TTTTTGGAAA (SEQ ID NO:63) and 3′-AGCTTTTCCAAAAA ([…]) TCTCTTGAA ([…]) GGG (SEQ ID NO:64). Complementary oligonucleotides were annealed, then ligated into pSuper-Retro vector (OligoEngine Co. Seattle, Wash.). E. coli clones containing the desired constructs were identified by restriction analysis and verified by DNA sequencing. The retroviral DNA vectors for generating BVR si-rRNA and […] were transfected into the HEK293A packaging cell line, and the supernatant containing the expressed si-rBVR or si-rHO-2 retrovirus was then titrated in NIH3T3 cells. Retrovirus expressing siRNA was used to infect cells at a multiplicity of infection of 4 plaque-forming units/cell. The plasmid pcDNA-hBVR has previously been described (Lerner-Marmarosh et al., “Human Biliverdin Reductase: A Member of the Insulin Receptor Substrate Family with Serine/Threonine/Tyrosine Kinase Activity,” Proc Natl Acad Sci US A 102:7109-7114 (2005), which is hereby incorporated by reference in its entirety); pcDNA-hHO2 was constructed by cloning the HO-2 open reading frame into pcDNA3. […]

[3] = 10 μM isoproterenol, western blot

SMILES: CC(C)NCC(O)c1ccc(O)c(O)c1 (stereo not shown) [isoproterenol]
- BVR mRNA in heart [1]: increased
- level of HO-1 mRNA in the tissue [1]: no apparent change
- level of HO-2 mRNA in heart [1]: no change
- BVR protein expression in heart ([1]; vs sham): up-regulated
- HO-2 protein expression in heart ([1]; vs sham): up-regulated
- time for which increased levels of both proteins (BVR, HO-2) remained stable ([2]; 10 μM isoproterenol): up to 96 hours
- time by which BVR protein expression was elevated [2, 3]: ≤ 8 h
- time by which HO-2 protein level began to increase [2, 3]: ≤ 12 h
- time by which HO-2 protein level reached a plateau [2, 3]: ≤ 24 h
- HO-1 protein expression ([2]; isoproterenol treatment up to 96 hours): not detected
